US12297194B2, “N2-phenylpyrimidine-2,4-diamine compounds, and preparation methods and methods of use thereof” (BRIDGE BIOTHERAPEUTICS, INC., priority 2021, dated 2025)

Columns and labels:
Format in all cases: cell-based, murine
[1] = molecular target: Ba/F3 EGFR Del19/T790M/C797S mutants (Homo sapiens, UniProt P00533, T790M/C797S, cells depend on it, form not given); assay: CellTiter-Glo cell viability, Ba/F3 EGFR Del19/T790M/C797S cells; settings: 72 hours, read-out: Ba/F3 EGFR mutant cell (IC50, nM) D/T/C
Procedure: (§1) In order to evaluate an inhibitory ability on wild-type Ba/F3 EGFR and Ba/F3 EGFR mutations in Ba/F3 cell lines by the compounds of Formula 1, the experiment was carried out as described below.
(§2) The measurement of activities on Ba/F3 cells harboring wild-type EGFR and EGFR mutants by the compounds of the present invention were determined utilizing the CELLTITER-GLO™ system from Promega, as follows. The CELLTITER-GLO™ assay is a method for measuring the ATP present in cells to determine the cell viability. Ba/F3 EGFR wild-type and Ba/F3 EGFR L858R/C797S (L/C), Ba/F3 EGFR L858R/T790M/C797S (L/T/C), Ba/F3 EGFR Del19/T790M (D/T), Ba/F3 EGFR Del19/C797S (D/C), Ba/F3 EGFR Del19/T790M/C797S (D/T/C) mutant cell lines were maintained in RPMI1640, containing […], 1% penicillin-streptomycin, […] puromycin. Cells were grown in a humidified incubator at 37° C. with […].
(§3) The analysis of an EGFR inhibitory activity by the compounds was carried out in accordance with the analysis reaction recipe below.
(§4) 2500 cells/90 μL were seeded in 96 well cell culture plate, and after 24 hours, treated with the compounds represented by Formula 1 in concentrations of 0, 0.3, 0.9, 2.7, 8.2, 24.7, 74.1, 222.2, 666.7, 2000 (nM). After the reaction of 72 hours, the plate was incubated for 30 minutes at ambient temperature, and then, was further treated with 100 μL of the CELLTITER-GLO™ reagent and was shaken for 10 minutes at ambient temperature. Finally, measurement of the luminescence values were obtained using the SPECTRAMAX™ iD3 (Molecular Devices), and the IC50 values of the compound were analyzed using the GraphPad Prism program (version 9.0.2, GraphPad Software, Inc.).

[2] = molecular target: Ba/F3 EGFR L858R/T790M/C797S mutants (Homo sapiens, UniProt P00533, T790M/C797S/L858R, cells depend on it); assay: CellTiter-Glo cell viability, Ba/F3 EGFR L858R/T790M/C797S cells; settings: 72 hours, read-out: Ba/F3 EGFR mutant cell (IC50, nM) L/T/C
Sequence of Ba/F3 EGFR L858R/T790M/C797S mutants (P00533 whole entry T790M/C797S/L858R): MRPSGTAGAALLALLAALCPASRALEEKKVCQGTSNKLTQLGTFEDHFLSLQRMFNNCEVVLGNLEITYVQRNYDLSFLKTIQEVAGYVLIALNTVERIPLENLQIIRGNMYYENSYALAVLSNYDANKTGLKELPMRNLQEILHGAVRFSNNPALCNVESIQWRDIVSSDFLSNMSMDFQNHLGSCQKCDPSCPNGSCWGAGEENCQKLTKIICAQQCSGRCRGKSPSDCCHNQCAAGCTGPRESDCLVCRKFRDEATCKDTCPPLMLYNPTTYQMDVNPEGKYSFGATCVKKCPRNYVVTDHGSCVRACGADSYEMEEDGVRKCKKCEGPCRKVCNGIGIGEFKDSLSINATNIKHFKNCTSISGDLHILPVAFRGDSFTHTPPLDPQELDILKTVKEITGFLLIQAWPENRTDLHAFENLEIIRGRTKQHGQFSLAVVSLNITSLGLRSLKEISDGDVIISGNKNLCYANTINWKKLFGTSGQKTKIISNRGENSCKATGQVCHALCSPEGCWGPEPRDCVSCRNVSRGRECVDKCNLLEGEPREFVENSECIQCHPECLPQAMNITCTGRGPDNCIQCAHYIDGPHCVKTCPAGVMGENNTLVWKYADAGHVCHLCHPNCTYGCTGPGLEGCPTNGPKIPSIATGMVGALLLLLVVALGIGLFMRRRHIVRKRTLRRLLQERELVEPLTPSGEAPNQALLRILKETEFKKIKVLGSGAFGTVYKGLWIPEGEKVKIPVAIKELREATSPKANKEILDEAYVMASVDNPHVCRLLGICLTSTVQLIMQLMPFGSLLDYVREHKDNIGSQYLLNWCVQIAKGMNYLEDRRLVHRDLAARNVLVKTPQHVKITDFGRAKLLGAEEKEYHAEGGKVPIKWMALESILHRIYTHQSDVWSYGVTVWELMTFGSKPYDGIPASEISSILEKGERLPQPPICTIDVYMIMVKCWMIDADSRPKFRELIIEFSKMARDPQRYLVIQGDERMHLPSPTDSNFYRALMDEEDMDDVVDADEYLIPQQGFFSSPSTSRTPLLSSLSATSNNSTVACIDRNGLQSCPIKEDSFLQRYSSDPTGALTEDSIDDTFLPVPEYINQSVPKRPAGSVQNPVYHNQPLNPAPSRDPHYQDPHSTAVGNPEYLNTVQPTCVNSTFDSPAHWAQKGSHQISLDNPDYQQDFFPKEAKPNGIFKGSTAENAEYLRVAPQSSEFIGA
Procedure: as §1, §2, §3, §4

[3] = molecular target: Ba/F3 EGFR Wild-type (Homo sapiens, UniProt P00533); assay: CellTiter-Glo cell viability, Ba/F3 EGFR wild-type cells; settings: 72 hours, read-out: Ba/F3 EGFR mutant cell (IC50, nM) WT
Sequence of Ba/F3 EGFR Wild-type (P00533 whole entry, change not shown): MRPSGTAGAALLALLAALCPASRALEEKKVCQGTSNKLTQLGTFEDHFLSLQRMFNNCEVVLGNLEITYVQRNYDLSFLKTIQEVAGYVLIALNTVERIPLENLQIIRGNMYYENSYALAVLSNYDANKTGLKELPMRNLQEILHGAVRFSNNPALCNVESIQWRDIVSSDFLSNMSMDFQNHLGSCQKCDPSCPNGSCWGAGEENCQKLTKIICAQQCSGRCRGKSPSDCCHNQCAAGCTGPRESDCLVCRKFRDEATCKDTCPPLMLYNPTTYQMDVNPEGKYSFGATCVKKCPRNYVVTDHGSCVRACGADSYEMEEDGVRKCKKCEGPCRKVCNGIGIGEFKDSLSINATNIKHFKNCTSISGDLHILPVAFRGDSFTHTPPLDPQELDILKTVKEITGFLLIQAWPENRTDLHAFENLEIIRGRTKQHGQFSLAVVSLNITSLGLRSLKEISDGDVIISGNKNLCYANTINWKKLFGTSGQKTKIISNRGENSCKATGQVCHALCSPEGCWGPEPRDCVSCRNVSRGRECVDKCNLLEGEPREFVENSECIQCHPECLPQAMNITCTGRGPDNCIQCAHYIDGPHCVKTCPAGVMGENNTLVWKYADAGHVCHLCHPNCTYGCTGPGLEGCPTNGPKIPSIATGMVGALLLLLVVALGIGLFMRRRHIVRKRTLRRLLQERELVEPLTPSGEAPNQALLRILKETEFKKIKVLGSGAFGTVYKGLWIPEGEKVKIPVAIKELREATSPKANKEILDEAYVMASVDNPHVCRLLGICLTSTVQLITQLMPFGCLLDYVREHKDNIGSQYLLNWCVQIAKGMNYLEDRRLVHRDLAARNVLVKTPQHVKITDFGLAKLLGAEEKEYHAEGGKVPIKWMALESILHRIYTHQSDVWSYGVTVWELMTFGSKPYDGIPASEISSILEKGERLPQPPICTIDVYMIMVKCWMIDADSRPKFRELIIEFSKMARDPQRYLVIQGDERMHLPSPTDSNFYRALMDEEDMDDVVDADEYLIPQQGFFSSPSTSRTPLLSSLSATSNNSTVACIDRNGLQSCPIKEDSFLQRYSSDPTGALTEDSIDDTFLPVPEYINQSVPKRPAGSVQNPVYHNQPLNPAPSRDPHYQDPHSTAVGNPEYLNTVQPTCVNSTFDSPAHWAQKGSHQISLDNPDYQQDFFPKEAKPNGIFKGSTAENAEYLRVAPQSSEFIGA
Procedure: as §1, §2, §3, §4

[4] = molecular target: Ba/F3 EGFR Del19/C797S mutants (Homo sapiens, UniProt P00533, C797S, cells depend on it, form not given); assay: CellTiter-Glo cell viability, Ba/F3 EGFR Del19/C797S cells; settings: 72 hours, read-out: Ba/F3 EGFR mutant cell (IC50, nM) D/C
Procedure: as §1, §2, §3, §4

[5] = molecular target: Ba/F3 EGFR L858R/C797S mutants (Homo sapiens, UniProt P00533, C797S/L858R, cells depend on it); assay: CellTiter-Glo cell viability, Ba/F3 EGFR L858R/C797S cells; settings: 72 hours, read-out: Ba/F3 EGFR mutant cell (IC50, nM) L/C
Sequence of Ba/F3 EGFR L858R/C797S mutants (P00533 whole entry C797S/L858R): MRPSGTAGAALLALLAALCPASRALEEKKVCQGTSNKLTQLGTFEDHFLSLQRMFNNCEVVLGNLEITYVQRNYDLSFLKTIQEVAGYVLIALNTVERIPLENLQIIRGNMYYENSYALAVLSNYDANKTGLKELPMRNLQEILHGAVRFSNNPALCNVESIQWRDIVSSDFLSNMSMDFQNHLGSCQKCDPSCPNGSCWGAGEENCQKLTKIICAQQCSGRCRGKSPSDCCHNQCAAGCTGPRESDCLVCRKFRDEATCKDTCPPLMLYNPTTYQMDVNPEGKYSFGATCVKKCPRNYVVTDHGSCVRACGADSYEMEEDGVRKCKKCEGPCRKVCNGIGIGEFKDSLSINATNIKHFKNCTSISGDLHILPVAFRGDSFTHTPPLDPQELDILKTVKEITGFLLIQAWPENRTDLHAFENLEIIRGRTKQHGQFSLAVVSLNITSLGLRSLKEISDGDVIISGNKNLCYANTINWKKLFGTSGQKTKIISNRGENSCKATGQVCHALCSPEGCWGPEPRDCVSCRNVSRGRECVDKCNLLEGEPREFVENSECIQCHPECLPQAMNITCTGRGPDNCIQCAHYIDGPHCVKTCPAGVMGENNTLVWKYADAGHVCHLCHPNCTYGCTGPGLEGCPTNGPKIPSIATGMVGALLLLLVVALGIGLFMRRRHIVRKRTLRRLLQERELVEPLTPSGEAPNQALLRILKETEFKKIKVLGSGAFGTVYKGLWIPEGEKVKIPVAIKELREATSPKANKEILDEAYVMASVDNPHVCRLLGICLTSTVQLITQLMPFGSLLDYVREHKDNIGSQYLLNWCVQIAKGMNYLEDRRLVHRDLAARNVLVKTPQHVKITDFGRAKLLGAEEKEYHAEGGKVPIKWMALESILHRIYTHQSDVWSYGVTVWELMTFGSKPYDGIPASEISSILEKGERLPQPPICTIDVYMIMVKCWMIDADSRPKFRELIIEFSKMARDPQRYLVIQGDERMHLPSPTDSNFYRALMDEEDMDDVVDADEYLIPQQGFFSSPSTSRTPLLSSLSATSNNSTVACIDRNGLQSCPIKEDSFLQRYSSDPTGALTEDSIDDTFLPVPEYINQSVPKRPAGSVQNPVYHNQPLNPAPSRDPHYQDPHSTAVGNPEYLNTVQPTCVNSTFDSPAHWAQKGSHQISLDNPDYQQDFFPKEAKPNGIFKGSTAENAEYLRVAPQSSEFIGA
Procedure: as §1, §2, §3, §4

[6] = molecular target: Ba/F3 EGFR Del19/T790M mutants (Homo sapiens, UniProt P00533, T790M, cells depend on it, form not given); assay: CellTiter-Glo cell viability, Ba/F3 EGFR Del19/T790M cells; settings: 72 hours, read-out: Ba/F3 EGFR mutant cell (IC50, nM) D/T
Sequence of Ba/F3 EGFR Del19/T790M mutants (P00533 with tags, fused parts or gaps DEL746-750/T790M, form open): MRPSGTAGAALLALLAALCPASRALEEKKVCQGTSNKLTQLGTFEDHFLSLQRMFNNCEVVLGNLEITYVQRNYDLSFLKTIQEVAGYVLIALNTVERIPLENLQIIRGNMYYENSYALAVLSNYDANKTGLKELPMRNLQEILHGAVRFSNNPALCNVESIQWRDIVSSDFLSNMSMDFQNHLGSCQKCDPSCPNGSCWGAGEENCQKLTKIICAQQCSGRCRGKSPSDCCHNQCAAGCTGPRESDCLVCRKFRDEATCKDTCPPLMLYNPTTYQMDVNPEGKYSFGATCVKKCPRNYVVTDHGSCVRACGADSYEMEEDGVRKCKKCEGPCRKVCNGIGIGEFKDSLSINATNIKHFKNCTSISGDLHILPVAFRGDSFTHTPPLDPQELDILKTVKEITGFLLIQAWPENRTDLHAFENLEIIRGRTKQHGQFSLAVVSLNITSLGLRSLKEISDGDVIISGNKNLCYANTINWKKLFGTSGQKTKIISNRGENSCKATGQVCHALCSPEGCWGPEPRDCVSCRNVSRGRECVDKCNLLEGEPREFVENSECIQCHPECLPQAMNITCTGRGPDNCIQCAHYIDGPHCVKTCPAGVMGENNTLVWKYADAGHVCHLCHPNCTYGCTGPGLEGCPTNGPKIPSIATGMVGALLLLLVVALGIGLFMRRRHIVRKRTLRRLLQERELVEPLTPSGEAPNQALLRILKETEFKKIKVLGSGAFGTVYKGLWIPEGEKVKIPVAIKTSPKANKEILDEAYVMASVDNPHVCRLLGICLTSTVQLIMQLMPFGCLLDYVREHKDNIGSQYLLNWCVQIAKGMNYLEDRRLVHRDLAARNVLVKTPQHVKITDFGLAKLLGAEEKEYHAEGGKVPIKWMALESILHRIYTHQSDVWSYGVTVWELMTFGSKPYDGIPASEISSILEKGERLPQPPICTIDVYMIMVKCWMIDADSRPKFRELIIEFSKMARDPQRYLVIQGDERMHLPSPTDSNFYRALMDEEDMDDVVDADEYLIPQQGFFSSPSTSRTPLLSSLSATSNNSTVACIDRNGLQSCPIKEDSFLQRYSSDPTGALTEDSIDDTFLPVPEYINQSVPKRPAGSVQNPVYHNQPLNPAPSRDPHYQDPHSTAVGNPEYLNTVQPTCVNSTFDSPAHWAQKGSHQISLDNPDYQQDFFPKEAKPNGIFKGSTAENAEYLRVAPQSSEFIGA
Procedure: as §1, §2, §3, §4

Row | Structure (SMILES) | GI50 [1] [nM] | GI50 [2] [nM] | GI50 [3] [nM] | GI50 [4] [nM] | GI50 [5] [nM] | GI50 [6] [nM]
1 | CCc1cc(Nc2ncc(Br)c(Nc3ccc4nccnc4c3NS(C)(=O)=O)n2)c(OC)cc1N1CCC(N2CCOCC2)CC1 [Example A28, N-(6-((5-bromo-2-((5-ethyl-2-methoxy-4-(4-morpholinopiperidin-1-yl)phenyl)amino)pyrimidin-4-yl)amino)quinoxalin-5-yl)methanesulfonamide] | 51 | 17 | 318 | 36 | 101 | 10
2 | COc1cc(C2=CCNCC2)c(C)cc1Nc1ncc(Br)c(Nc2ccc3nccnc3c2NS(C)(=O)=O)n1 [Example D2] | 710 | 330 | 1430 | 462 | 771 | 342
3 | COc1cc(N2CCC(N3CCN(C)CC3)CC2)ccc1Nc1ncc(Cl)c(Nc2ccc3c(c2NS(C)(=O)=O)OCCO3)n1 [Example C9, N-(6-((5-chloro-2-((2-methoxy-4-(4-(4-methylpiperazin-1-yl)piperidin-1-yl)phenyl)amino)pyrimidin-4-yl)amino)-2,3-dihydrobenzo[b][1,4]dioxin-5-yl)methanesulfonamide] | 260 | 356 | 755 | 281 | 345 | 152
4 | CCc1cc(Nc2ncc(Br)c(Nc3ccc4nccnc4c3N(C)S(C)(=O)=O)n2)c(OC)cc1N1CCC(N2CCN(C)CC2)CC1 [Example A10, N-(6-((5-bromo-2-((5-ethyl-2-methoxy-4-(4-(4-methylpiperazin-1-yl)piperidin-1-yl)phenyl)amino)pyrimidin-4-yl)amino)quinoxalin-5-yl)-N-methylmethane sulfonamide] | 4 | 9 | 400 | 16 | 37 | 5
5 | CCCc1cc(Nc2ncc(F)c(Nc3ccc4nccnc4c3NS(C)(=O)=O)n2)c(OC)cc1N1CCC(N2CCN(C)CC2)CC1 [Example A32, N-(6-((5-fluoro-2-((2-methoxy-4-(4-(4-methylpiperazin-1-yl)piperidin-1-yl)-5-propylphenyl)amino)pyrimidin-4-yl)amino)quinoxalin-5-yl)methanesulfonamide] | 91 | 229 | 603 | 11 | 51 | 27
6 | CCc1cc(Nc2ncc(Cl)c(Nc3ccc4nccnc4c3N(C)S(C)(=O)=O)n2)c(OC)cc1N1CC2(C1)CN(C(C)C)C2 [Example B27, N-(6-((5-chloro-2-((5-ethyl-4-(6-isopropyl-2,6-diazaspiro[3.3]heptan-2-yl)-2-methoxyphenyl)amino)pyrimidin-4-yl)amino)quinoxalin-5-yl)-N-methylmethanesulfonamide] | 5 | 40 | 359 | 18 | 35 | 25
7 | COc1cc(N2CCC(N3CCOCC3)CC2)c(C)cc1Nc1ncc(Cl)c(Nc2ccc3nccnc3c2NS(C)(=O)=O)n1 [Example A31, N-(6-((5-chloro-2-((2-methoxy-5-methyl-4-(4-morpholinopiperidin-1-yl)phenyl)amino)pyrimidin-4-yl)amino)quinoxalin-5-yl)methanesulfonamide] | 131 | 43 | 223 | 50 | 79 | 39
8 | COc1cc(N2CCC(N3CCN(C)CC3)CC2)c(C)cc1Nc1ncc(Br)c(Nc2cccc(OC)c2N(C)S(C)(=O)=O)n1 [Example C21, N-(2-((5-bromo-2-((2-methoxy-5-methyl-4-(4-(4-methylpiperazin-1-yl)piperidin-1-yl)phenyl)amino)pyrimidin-4-yl)amino)-6-methoxyphenyl)-N-methylmethanesulfonamide] | 13 | 49 | 660 | 10 | 61 | 18
9 | CCCc1cc(Nc2ncc(Cl)c(Nc3cccc(OC)c3NS(C)(=O)=O)n2)c(OC)cc1N1CCC(N(C)C)CC1 [Example C19, N-(2-((5-chloro-2-((4-(4-(dimethylamino)piperidin-1-yl)-2-methoxy-5-propylphenyl)amino)pyrimidin-4-yl)amino)-6-methoxyphenyl)methanesulfonamide] | 7 | 54 | 668 | 12 | 30 | 9
10 | CCc1cc(Nc2ncc(Br)c(Nc3ccc4nccnc4c3N(C)S(C)(=O)=O)n2)c(OC)cc1N1CC2CCC1CN2C(C)C (stereo not shown) [Example B30, N-(6-((5-bromo-2-((5-ethyl-4-(5-isopropyl-2,5-diazabicyclo[2.2.2]octan-2-yl)-2-methoxyphenyl)amino)pyrimidin-4-yl)amino)quinoxalin-5-yl)-N-methylmethanesulfonamide] | 2 | 71 | 233 | 11 | 23 | 7
11 | COc1cc(N2CC[C@H](N3CCN(C)CC3)[C@H](F)C2)ccc1Nc1ncc(Cl)c(Nc2ccc3nccnc3c2NS(C)(=O)=O)n1 [Example A35, N-(6-((5-chloro-2-((4-((3R,4S)-3-fluoro-4-(4-methylpiperazin-1-yl)piperidin-1-yl)-2-methoxyphenyl)amino)pyrimidin-4-yl)amino)quinoxalin-5-yl)methane sulfonamide] | 272 | 659 | 576 | 145 | 335 | 219
12 | CCS(=O)(=O)Nc1cc(OC)ccc1Nc1nc(Nc2cc(C)c(N3CCC(N4CCN(C)CC4)CC3)cc2OC)ncc1Cl [Example C17, N-(2-((5-chloro-2-((2-methoxy-5-methyl-4-(4-(4-methylpiperazin-1-yl)piperidin-1-yl)phenyl)amino)pyrimidin-4-yl)amino)-5-methoxyphenyl)ethanesulfonamide] | 14 | 40 | 655 | 9 | 52 | 7
13 | COc1cc(N2CCC(N3CCN(C)CC3)CC2)c(C)cc1Nc1ncc(Br)c(Nc2ccc3nccnc3c2NS(C)(=O)=O)n1 [Example A4, N-(6-((5-bromo-2-((2-methoxy-5-methyl-4-(4-(4-methylpiperazin-1-yl)piperidin-1-yl)phenyl)amino)pyrimidin-4-yl)amino)quinoxalin-5-yl)methanesulfonamide] | 1 | 6 | 249 | 12 | 34 | 3
14 | COc1cc(N2CC3(CNC3)C2)ccc1Nc1ncc(Cl)c(Nc2ccc3nccnc3c2NS(C)(=O)=O)n1 [Example D7, N-(6-((5-chloro-2-((2-methoxy-4-(2,6-diazaspiro[3.3]heptan-2-yl)phenyl)amino)pyrimidin-4-yl)amino)quinoxalin-5-yl)methanesulfonamide] | > 2000 | > 2000 | > 2000 |  | > 2000 | > 2000
15 | CCc1cc(Nc2ncc(Cl)c(Nc3ccc4nccnc4c3N(C)S(C)(=O)=O)n2)c(OC)cc1N1CCC(N2CCN(C)CC2)CC1 [Example A38, N-(6-((5-chloro-2-((5-ethyl-2-methoxy-4-(4-(4-methylpiperazin-1-yl)piperidin-1-yl)phenyl)amino)pyrimidin-4-yl)amino)quinoxalin-5-yl)-N-methylmethanesulfonamide] | 5 | 33 | 347 |  | 18 | 5
